Key:
T-47D = test: NCI60 cell line screen; conditions: Homo sapiens, T47D
HUVECs = test: In vitro tubule formation on matrigel; assay type: cell-based, human; conditions: 50 nM, 6 h
Procedure: FIG. 10 depicts the effect of compound 4 on in vitro tubule formation. HUVECs (1.5×10^6 cells/well) were grown on matrigel-coated 6-well plates for 6 h in the presence of vehicle (0.5% (v/v) ethanol) or 50 nM compound 4. […] The pictures shown in FIG. 10 are representative of three independent experiments. HUVECs seeded onto Matrigel in the presence of vehicle (0.5% (v/v) ethanol) underwent alignment into the capillary-like structures.

OVCAR-5 = test: NCI60 cell line screen; conditions: Homo sapiens
SK-MEL-2 = test: NCI60 cell line screen; conditions: Homo sapiens
NCI-H226 = test: NCI60 cell line screen; conditions: Homo sapiens
SK-MEL-5 = test: NCI60 cell line screen; conditions: Homo sapiens
LOX IMVI = test: NCI60 cell line screen; conditions: Homo sapiens
PC-3 = test: NCI60 cell line screen; conditions: Homo sapiens
K-562 = test: NCI60 cell line screen; conditions: Homo sapiens, K562
SK-MEL-28 = test: NCI60 cell line screen; conditions: Homo sapiens
MCF-7 = test: NCI60 cell line screen; conditions: Homo sapiens, MCF7
NCI-H552 = test: NCI60 cell line screen
[1] = system: microtubule network of endothelial cells (HUVECs); test: Microtubule network immunofluorescence; assay type: cell-based, human; conditions: 50 nM, 16 h
Procedure: FIG. 9 illustrates the effect of compound 4 in destabilising the microtubule network of endothelial cells. HUVECs (0.6×10^5 cell/chamber), grown on 4-chamber glass slides for 24 h were treated with vehicle (0.5% (v/v) ethanol) or 50 nM compound 4 for 16 h. The cells were then fixed in 100% methanol at −20° C., incubated with a monoclonal anti-α-tubulin antibody (Merck Biosciences, Nottingham, UK), followed by a FITC-conjugated anti-mouse antibody (DakoCytomation, Glostrup, Denmark) and then briefly stained with propidium iodide. The chamber partitions were removed from the slides and anti-quenching solution (2 mg/ml p-phenylenediamine in 50:50 glycerol to PBS solution) was applied to the surface of each slide and coverslips mounted. The organisation of the microtubule network and the cellular DNA was visualised using an Olympus IX81 Fluorescent Microscope (Olympus Corporation, Tokyo, Japan) at a magnification of 600×. The photographs illustrated in FIG. 9 are representative of three independent experiments.

HUVEC cells = test: HUVEC DNA content by flow cytometry (PI); assay type: cell-based, human; conditions: 24 h
Procedure: FIG. 8 illustrates the anti-proliferative response of endothelial cells to compound 4. HUVEC cells were treated with vehicle (0.5% (v/v) ethanol) or the indicated concentrations of 4 for 24 h and fixed by a drop-wise addition of ice-cold ethanol. Cells were then stained with 0.15 mg/ml propidium iodide (PI) and their DNA content assessed using a FACSCalibur flow cytometer (Becton Dickinson, San Jose, Calif., USA). Data collections (10,000 events per sample) were gated to exclude cell debris and cell aggregates. Analysis of data was performed using the CellQuest software (Becton Dickinson). PI fluorescence was proportional to the amount of DNA present in each entity and therefore indicated the stage of the cell cycle. Cells in the subG0/G1 phase (<2N DNA) were deemed apoptotic, while cells with 4N quantities of DNA were considered to be in the G2/M phase of the cell cycle. Values represent the mean±S.E.M for three independent experiments.

MDA-MB-468 = test: NCI60 cell line screen; conditions: Homo sapiens
SW-620 = test: NCI60 cell line screen; conditions: Homo sapiens
KM12 = test: NCI60 cell line screen; conditions: Homo sapiens
UACC-257 = test: NCI60 cell line screen; conditions: Homo sapiens
OVCAR-4 = test: NCI60 cell line screen; conditions: Homo sapiens
HOP-62 = test: NCI60 cell line screen; conditions: Homo sapiens
MALME-3M = test: NCI60 cell line screen; conditions: Homo sapiens
[2] = Stability by HPLC at three pH values; assay type: physicochemical; conditions: for half-life: all pH values (4, 7.4, 9), HPLC; for stability at varying pH: pH 4, 7.4, 9, HPLC
Procedure: The stability of β-lactam compounds 4, 8 and 12 was assessed by HPLC at three different pH values. […] The half-lives of 8 and 12 were both greater than 24 hours at all pH values. The stability of three ester prodrug derivatives of 4, i.e. 29, 30 and 31, was also assessed (FIG. 6).

| Structure (SMILES) | GI50 (T-47D) [µM] | GI50 (OVCAR-5) [µM] | GI50 (SK-MEL-2) [µM] | GI50 (NCI-H226) [µM] | GI50 (SK-MEL-5) [µM] | GI50 (LOX IMVI) [µM] | GI50 (PC-3) [µM] | GI50 (K-562) [µM] | GI50 (SK-MEL-28) [µM] | GI50 (MCF-7) [µM] | GI50 (NCI-H552) [µM] | GI50 (MDA-MB-468) [µM] | GI50 (SW-620) [µM] | GI50 (KM12) [µM] | GI50 (UACC-257) [µM] | GI50 (OVCAR-4) [µM] | GI50 (HOP-62) [µM] | half-life [2] [h] | stability at varying pH [2] | also measured |
| --- | --- | --- | --- | --- | --- | --- | --- | --- | --- | --- | --- | --- | --- | --- | --- | --- | --- | --- | --- | --- |
| COc1ccc(C2C(c3ccccc3)C(=O)N2c2cc(OC)c(OC)c(OC)c2)cc1O (centres unmarked) [Compound 4, 4-(3-Hydroxy-4-methoxyphenyl)-3-phenyl-1-(3,4,5-trimethoxyphenyl)-azetidin-2-one] | 31.2 | 0.038 | 0.014 | < 0.01 | < 0.01 | < 0.01 | < 0.01 | < 0.01 | < 0.01 | < 0.01 | 5.15 | < 0.01 | < 0.01 | < 0.01 | 22.4 | 0.018 |  |  |  | in vitro tubule formation (HUVECs): prevented spontaneous in vitro tubule formation; effect on tubulin cytoskeleton [1]: gross morphological changes in their tubulin cytoskeleton typical of depolymerising agents; effect on levels of apoptosis or G2/M (HUVEC cells; 1 nM): not sufficient to affect the levels of apoptosis or G2/M; apoptosis (subG0/G1) (HUVEC cells; 10 nM): 35.1%; cells in the G2/M phase (HUVEC cells; 10 nM): 36.9%; apoptosis (subG0/G1) (HUVEC cells; 50 nM): 31.4%; cells in the G2/M phase (HUVEC cells; 50 nM): 37.0%; apoptosis (subG0/G1) (HUVEC cells; 100 nM): 28.0%; cells in the G2/M phase (HUVEC cells; 100 nM): 39.8% |
| COc1ccc(C2C(c3ccccc3)C(=O)N2c2cc(OC)c(OC)c(OC)c2)cc1 (centres unmarked) [Compound 8, 4-(4-Methoxy-phenyl)-3-phenyl-1-(3,4,5-trimethoxy-phenyl)-azetidin-2-one] | > 100 | 0.668 | > 100 | 0.263 | 0.124 | 0.0676 |  | 0.0291 | 0.405 | 0.0351 | 0.0966 | 0.0684 | 0.0487 | 0.0427 | 27.9 | 0.0825 | 0.605 | > 24 | least stable at acidic pH 4 and relatively stable at pH's 7.4 and 9 | GI50 (MALME-3M): > 100 µM |
| COc1ccc(C2C(c3cccs3)C(=O)N2c2cc(OC)c(OC)c(OC)c2)cc1 (centres unmarked) [Compound 12, 4-(4-Methoxyphenyl)-3-thiophen-2-yl-1-(3,4,5-trimethoxyphenyl)-azetidin-2-one] | > 1000 | 0.051 | 7.79 | < 0.01 | 0.014 | < 0.01 | < 0.01 |  | 0.01 | < 0.01 | < 0.01 | < 0.01 | 0.01 | < 0.01 | 67.8 | 0.013 | 0.07 | > 24 | least stable at acidic pH 4 and relatively stable at pH's 7.4 and 9 |  |

Source: patent US20120309734A1, “COMBRETASTATIN DERIVATIVES AND USES THEREFOR” (priority 2009, published 2012)
